Data from US20100048462A1, “TRUNCATED PTH PEPTIDES WITH A CYCLIC CONFORMATION” (Zealand Pharma A/S, priority 2006, published 2010).
Bridge positions count the residues as written; N and C are the ends. Square brackets hold non-standard residues; d marks the D form. Peptide text beside a SMILES is read from it. hArg = N=C(N)NCCCC[C@H](N)C(=O)O; Ac5c = NC1(C(=O)O)CCCC1; Nva = CCC[C@H](N)C(=O)O; Abu = CC[C@H](N)C(=O)O; Aib = CC(C)(N)C(=O)O

Target: T1, Saos-2 PTH1R (Homo sapiens, UniProt Q03431)
T1 construct: endogenous in cells; host or cells: Saos-2
T1 sequence (Q03431 27-593): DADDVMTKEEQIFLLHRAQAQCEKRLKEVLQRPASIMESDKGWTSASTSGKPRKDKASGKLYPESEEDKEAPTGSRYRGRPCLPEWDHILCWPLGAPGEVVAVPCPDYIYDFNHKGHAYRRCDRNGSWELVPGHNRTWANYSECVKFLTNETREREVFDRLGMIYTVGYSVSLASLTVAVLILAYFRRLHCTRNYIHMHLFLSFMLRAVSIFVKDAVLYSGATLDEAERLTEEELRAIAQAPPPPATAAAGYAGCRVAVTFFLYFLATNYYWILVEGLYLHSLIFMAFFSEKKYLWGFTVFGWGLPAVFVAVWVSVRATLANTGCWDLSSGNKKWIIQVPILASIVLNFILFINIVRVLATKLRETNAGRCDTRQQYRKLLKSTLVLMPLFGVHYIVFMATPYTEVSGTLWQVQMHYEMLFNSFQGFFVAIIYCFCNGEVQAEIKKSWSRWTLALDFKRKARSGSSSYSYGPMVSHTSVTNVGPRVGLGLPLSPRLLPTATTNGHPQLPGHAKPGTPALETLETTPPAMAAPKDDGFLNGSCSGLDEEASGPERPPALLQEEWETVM
Test: cAMP-efficacy assay in Saos-2 cells
Format: cell-based
Details: for EC50: cAMP, 100 μM IBMX, 37° C. 15 min, suffix of label = salt tested; for Emax ± SEM: relative effect to the control (SEQ ID NO: 32)
Experimental: Peptides were dissolved in phosphate buffered saline and further diluted in Tyrode's buffer (TB, Sigma-Aldrich) containing 0.1% BSA and 100 μM isobutyl-methyl-xanthine (IBMX, Sigma-Aldrich). Saos-2 cells were seeded at 50,000 cells/well in 96-microtiter plates and grown for two days before the efficacy assays. On the day of analysis, the growth medium was carefully removed by suction. Cells were washed once with 200 μl TB/0.1% BSA. The buffer was replaced with 100 μl reaction mixture (±test peptide), and incubated at 37° C. for 15 min. The reaction was stopped by addition of 25 μl of ice-cold 0.5 M HCl. Cells were in the following incubated on ice for 60 min. 75 μl acetate-buffer, pH6.2, was added to each well of a 96-well cAMP FlashPlate (Perkin-Elmer). […] FlashPlates were incubated overnight at 4° C., emptied by suction and counted in a TopCounter (Packard).
Determinations were performed in single determinations or triplicates at all doses. […] Standards were included as single determinations, duplicates or triplicates in each experiment, preferentially on each plate.
Concentration-dependent cAMP responses were imported into GraphPad Prism vers. 4 (GraphPad Software), transformed and plotted. […] Thus, a four-parameter logistic equation was used for determination of the EC50 values. Curves were fitted with a function for sigmoidal dose response curve (variable slope) non-linear fit Y=Bottom+(Top-Bottom)/(1+10̂((LogEC50−X)*HillSlope)) where X is the logarithm of concentration and Y is the response. Y starts at Bottom and goes to Top with a sigmoid shape. pEC50, Hill-coefficient and the maximally inducible concentration of cAMP (Emax) were evaluated.
Overall statistical differences were analyzed with Statistica (Statsoft) using one-way ANOVA. Post-hoc comparisons were made by the use of Fisher's Least Significance Test. Results were considered significant, when p was lower than 0.05.

Compound | EC50 [µM] | Emax ± SEM
CC[C@H](NC(=O)[C@@H](NC(=O)C1(N)CCCC1)C(C)C)C(=O)N[C@@H](CCC(=O)O)C(=O)N[C@H](C(=O)N[C@@H](CCC(N)=O)C(=O)N[C@@H](CC(C)C)C(=O)N[C@@H](CC(C)C)C(=O)N[C@@H](Cc1c[nH]cn1)C(=O)N[C@@H](CCC(N)=O)C(=O)N[C@@H](CCCCNC(=N)N)C(=O)N[C@@H](C)C(=O)N[C@H]1CCCCNC(=O)C[C@@H](C(N)=O)NC(=O)[C@H](CC(N)=O)NC(=O)[C@H](CC(C)C)NC(=O)[C@H](Cc2c[nH]c3ccccc23)NC1=O)[C@@H](C)CC [SEQ ID NO: 15, H-Ac5c-Val-Abu-Glu-Ile-Gln-Leu-Leu-His-Gln-Har-Ala-Lys( )-Trp-Leu-Asn-Asp( )-NH2] (H-[Ac5c]V[Abu]EIQLLHQ[hArg]AKWLND-NH2; lactam 13-17) | 0.0603 | 1.04 ± 0.03
CCC[C@H](NC(=O)[C@@H](NC(=O)C1(N)CCCC1)C(C)C)C(=O)N[C@@H](CCC(=O)O)C(=O)N[C@H](C(=O)N[C@@H](CCC(N)=O)C(=O)N[C@@H](CC(C)C)C(=O)N[C@@H](CC(C)C)C(=O)N[C@@H](Cc1c[nH]cn1)C(=O)N[C@@H](CCC(N)=O)C(=O)N[C@@H](CCCCNC(=N)N)C(=O)N[C@@H](C)C(=O)N[C@H]1CCCCNC(=O)C[C@@H](C(N)=O)NC(=O)[C@H](CC(N)=O)NC(=O)[C@H](CC(C)C)NC(=O)[C@H](Cc2c[nH]c3ccccc23)NC1=O)[C@@H](C)CC [SEQ ID NO: 16, H-Ac5c-Val-Nva-Glu-Ile-Gln-Leu-Leu-His-Gln-Har-Ala-Lys( )-Trp-Leu-Asn-Asp( )-NH2] (H-[Ac5c]V[Nva]EIQLLHQ[hArg]AKWLND-NH2; lactam 13-17) | 0.12 | 1.03 ± 0.04
CC[C@H](C)[C@H](NC(=O)[C@H](CCC(=O)O)NC(=O)C(C)(C)NC(=O)[C@@H](NC(=O)C1(N)CCCC1)C(C)C)C(=O)N[C@@H](CCC(N)=O)C(=O)N[C@@H](CC(C)C)C(=O)N[C@@H](CC(C)C)C(=O)N[C@@H](Cc1c[nH]cn1)C(=O)N[C@@H](CCC(N)=O)C(=O)N[C@@H](CCCCNC(=N)N)C(=O)N[C@@H](C)C(=O)N[C@H]1CCCCNC(=O)C[C@@H](C(N)=O)NC(=O)[C@H](CC(=O)O)NC(=O)[C@H](CC(C)C)NC(=O)[C@H](Cc2c[nH]c3ccccc23)NC1=O [SEQ ID NO: 22, H-Ac5c-Val-Aib-Glu-Ile-Gln-Leu-Leu-His-Gln-Har-Ala-Lys( )-Trp-Leu-Asp-Asp( )-NH2] (H-[Ac5c]V[Aib]EIQLLHQ[hArg]AKWLDD-NH2; lactam 13-17) | 0.0741 | 1.08 ± 0.04
CC[C@H](C)[C@H](NC(=O)[C@H](CCC(=O)O)NC(=O)C(C)(C)NC(=O)[C@@H](NC(=O)C1(N)CCCC1)C(C)C)C(=O)N[C@@H](CCC(N)=O)C(=O)N[C@@H](CC(C)C)C(=O)N[C@@H](CCSC)C(=O)N[C@@H](Cc1c[nH]cn1)C(=O)N[C@@H](CCC(N)=O)C(=O)N[C@@H](CCCCNC(=N)N)C(=O)N[C@@H](C)C(=O)N[C@H]1CCCCNC(=O)C[C@@H](C(N)=O)NC(=O)[C@H](CC(=O)O)NC(=O)[C@H](CC(C)C)NC(=O)[C@H](Cc2c[nH]c3ccccc23)NC1=O [SEQ ID NO: 23, H-Ac5c-Val-Aib-Glu-Ile-Gln-Leu-Met-His-Gln-Har-Ala-Lys( )-Trp-Leu-Asp-Asp( )-NH2] (H-[Ac5c]V[Aib]EIQLMHQ[hArg]AKWLDD-NH2; lactam 13-17) | 0.0331 | 1.16 ± 0.08
CC[C@H](C)[C@H](NC(=O)[C@H](CCC(=O)O)NC(=O)C(C)(C)NC(=O)[C@@H](NC(=O)C1(N)CCCC1)C(C)C)C(=O)N[C@@H](CCC(N)=O)C(=O)N[C@@H](CC(C)C)C(=O)N[C@@H](CCSC)C(=O)N[C@@H](Cc1c[nH]cn1)C(=O)N[C@@H](CCC(N)=O)C(=O)N[C@@H](CCCNC(=N)N)C(=O)N[C@@H](C)C(=O)N[C@H]1CCCCNC(=O)C[C@@H](C(N)=O)NC(=O)[C@H](CC(N)=O)NC(=O)[C@H](CC(C)C)NC(=O)[C@H](Cc2c[nH]c3ccccc23)NC1=O [SEQ ID NO: 25] (H-[Ac5c]V[Aib]EIQLMHQRAKWLND-NH2; lactam 13-17) | 0.00891 | 1.04 ± 0.03
CC[C@H](C)[C@H](NC(=O)[C@H](CCC(=O)O)NC(=O)C(C)(C)NC(=O)[C@@H](NC(=O)C1(N)CCCC1)C(C)C)C(=O)N[C@@H](CCC(N)=O)C(=O)N[C@@H](CC(C)C)C(=O)N[C@@H](CCSC)C(=O)N[C@@H](Cc1c[nH]cn1)C(=O)N[C@@H](CCC(N)=O)C(=O)N[C@@H](CCCCNC(=N)N)C(=O)N[C@@H](C)C(=O)N[C@H]1CCCCNC(=O)C[C@@H](C(N)=O)NC(=O)[C@H](CC(N)=O)NC(=O)[C@H](CC(C)C)NC(=O)[C@H](Cc2ccccc2)NC1=O [SEQ ID NO: 26, H-Ac5c-Val-Aib-Glu-Ile-Gln-Leu-Met-His-Gln-Har-Ala-Lys( )-Phe-Leu-Asn-Asp( )-NH2] (H-[Ac5c]V[Aib]EIQLMHQ[hArg]AKFLND-NH2; lactam 13-17) | 0.0126 | 1.08 ± 0.09
CC[C@H](C)[C@H](NC(=O)[C@H](CCC(=O)O)NC(=O)C(C)(C)NC(=O)[C@@H](NC(=O)C1(N)CCCC1)C(C)C)C(=O)N[C@@H](CCC(N)=O)C(=O)N[C@@H](Cc1ccccc1)C(=O)N[C@@H](CC(C)C)C(=O)N[C@@H](Cc1c[nH]cn1)C(=O)N[C@@H](CCC(N)=O)C(=O)N[C@@H](CCCCNC(=N)N)C(=O)N[C@@H](C)C(=O)N[C@H]1CCCCNC(=O)C[C@@H](C(N)=O)NC(=O)[C@H](CC(N)=O)NC(=O)[C@H](CC(C)C)NC(=O)[C@H](Cc2c[nH]c3ccccc23)NC1=O [SEQ ID NO: 27, H-Ac5c-Val-Aib-Glu-Ile-Gln-Phe-Leu-His-Gln-Har-Ala-Lys( )-Trp-Leu-Asn-Asp( )-NH2] (H-[Ac5c]V[Aib]EIQFLHQ[hArg]AKWLND-NH2; lactam 13-17) | 0.0123 | 0.92 ± 0.06
CC[C@H](C)[C@H](NC(=O)[C@H](CCC(=O)O)NC(=O)C(C)(C)NC(=O)[C@@H](NC(=O)C1(N)CCCC1)C(C)C)C(=O)N[C@@H](CCC(N)=O)C(=O)N[C@@H](CC(C)C)C(=O)N[C@@H](CC(C)C)C(=O)N[C@@H](Cc1c[nH]cn1)C(=O)N[C@@H](CCC(N)=O)C(=O)N[C@@H](CCCCNC(=N)N)C(=O)N[C@@H](CCCNC(=N)N)C(=O)N[C@H]1CCCCNC(=O)C[C@@H](C(N)=O)NC(=O)[C@H](CC(N)=O)NC(=O)[C@H](CC(C)C)NC(=O)[C@H](Cc2c[nH]c3ccccc23)NC1=O [SEQ ID NO: 28, H-Ac5c-Val-Aib-Glu-Ile-Gln-Leu-Leu-His-Gln-Har-Arg-Lys( )-Trp-Leu-Asn-Asp( )-NH2] (H-[Ac5c]V[Aib]EIQLLHQ[hArg]RKWLND-NH2; lactam 13-17) | 0.00537 | 0.95 ± 0.06
CC[C@H](C)[C@H](NC(=O)[C@H](CCC(=O)O)NC(=O)C(C)(C)NC(=O)[C@@H](NC(=O)C1(N)CCCC1)C(C)C)C(=O)N[C@@H](CCC(=O)O)C(=O)N[C@@H](CC(C)C)C(=O)N[C@@H](CC(C)C)C(=O)N[C@@H](Cc1c[nH]cn1)C(=O)N[C@@H](CCC(N)=O)C(=O)N[C@@H](CCCCNC(=N)N)C(=O)N[C@@H](C)C(=O)N[C@H]1CCCCNC(=O)C[C@@H](C(N)=O)NC(=O)[C@H](CC(N)=O)NC(=O)[C@H](CC(C)C)NC(=O)[C@H](Cc2c[nH]c3ccccc23)NC1=O [SEQ ID NO: 29, H-Ac5c-Val-Aib-Glu-Ile-Glu-Leu-Leu-His-Gln-Har-Ala-Lys( )-Trp-Leu-Asn-Asp( )-NH2] (H-[Ac5c]V[Aib]EIELLHQ[hArg]AKWLND-NH2; lactam 13-17) | 0.112 | 1.27 ± 0.20
